The record followed here is ChEMBL document CHEMBL3232845 (Bioorg Med Chem Lett, 2014).

In data set [1] the target is T1, Serine/threonine-protein kinase B-raf (Homo sapiens, UniProt P15056, V600E). Nature of the data set: Inhibition of full-length B-Raf V600E mutant (unknown origin).
Data set [2] has as its target T1, Serine/threonine-protein kinase B-raf. Description: Inhibition of B-Raf V600E mutant in human Malme-3M cells assessed as basal ERK phosphorylation. It counts as cell-based.
A short description of data set [3]: Apparent permeability of the compound from apical to basolateral direction in pig LLC-PK1 cells. The class given is ADME, cell-based, Sus scrofa.
The nature of data set [4]: Clearance in mouse at 2.5 mg/kg, iv. More on the design: dose 2.5 mg/kg, route intravenous. The settings on record: in vivo. It counts as ADME, organism-based.
Data set [5] is described as follows: Volume of distribution in mouse. The class given is ADME, organism-based. The settings on record: in vivo.
A short description of data set [6]: AUC in mouse at 30 mg/kg, po. The class given is ADME, organism-based. More on the design: dose 30 mg/kg, route oral. Conditions: plasma.
The nature of data set [7]: Oral bioavailability in mouse at 30 mg/kg. Conditions: in vivo. It counts as ADME, organism-based.

T1 sequence (P15056 2-766 V600E limits assumed): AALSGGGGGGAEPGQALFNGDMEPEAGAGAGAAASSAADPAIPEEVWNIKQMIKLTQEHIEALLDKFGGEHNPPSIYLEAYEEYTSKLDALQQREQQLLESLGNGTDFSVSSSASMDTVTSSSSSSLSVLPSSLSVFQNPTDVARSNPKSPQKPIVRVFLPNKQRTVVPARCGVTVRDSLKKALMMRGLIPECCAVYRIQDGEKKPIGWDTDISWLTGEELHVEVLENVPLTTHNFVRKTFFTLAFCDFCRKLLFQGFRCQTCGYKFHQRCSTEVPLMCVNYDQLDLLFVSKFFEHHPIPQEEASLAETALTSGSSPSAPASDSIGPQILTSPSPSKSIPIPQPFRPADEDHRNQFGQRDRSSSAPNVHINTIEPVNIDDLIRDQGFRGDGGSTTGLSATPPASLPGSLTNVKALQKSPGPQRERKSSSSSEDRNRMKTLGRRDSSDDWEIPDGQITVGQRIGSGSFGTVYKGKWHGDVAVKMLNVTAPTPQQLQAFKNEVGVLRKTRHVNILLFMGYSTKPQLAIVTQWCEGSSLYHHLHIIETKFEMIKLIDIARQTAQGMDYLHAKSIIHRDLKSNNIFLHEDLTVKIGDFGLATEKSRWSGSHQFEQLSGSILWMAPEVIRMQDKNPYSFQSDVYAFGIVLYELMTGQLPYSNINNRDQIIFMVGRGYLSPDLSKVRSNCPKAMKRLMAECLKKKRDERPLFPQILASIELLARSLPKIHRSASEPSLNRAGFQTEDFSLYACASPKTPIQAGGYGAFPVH

With `CCCS(=O)(=O)Nc1ccc(F)c(N(C)c2ccc3ncn(C)c(=O)c3c2)c1F`, the IC50 (in general, the concentration that gives 50% inhibition) is 0.011 µM in data set [1] and 0.062 µM in data set [2].

With `CCCS(=O)(=O)Nc1ccc(F)c(Nc2ccc3ncnc(N(C)C)c3c2)c1Cl`, the IC50 in data set [1] was 0.1 µM; in data set [2], 0.878 µM.

As to `CCCS(=O)(=O)Nc1ccc(Cl)c(Nc2ccc3ncn(C)c(=O)c3c2)c1C#N`, the IC50 stood at 0.0002 µM in data set [1] and 0.016 µM in data set [2].

Take `CCCS(=O)(=O)Nc1ccc(F)c(Nc2ccc3ncnc(OC)c3c2)c1Cl`: the results for the IC50 in data set [1] and in data set [2] were 0.016 µM and 0.733 µM, respectively.

As for `CCCS(=O)(=O)Nc1ccc(F)c(N(CC)c2ccc3ncn(C)c(=O)c3c2)c1F`, the IC50 in data set [1] was 0.026 µM; in data set [2], 0.11 µM.

In the case of `CCCS(=O)(=O)Nc1ccc(F)c(Nc2ccc3ncnc(NC)c3c2)c1Cl`, the IC50 in data set [1] worked out at 0.011 µM; in data set [2] it was 0.132 µM.

For the compound `CCCS(=O)(=O)Nc1ccc(F)c(Nc2ccc3nccnc3c2)c1Cl`, the IC50 was 0.025 µM in data set [1] and 0.814 µM in data set [2].

Turning to `CCCS(=O)(=O)Nc1ccc(F)c(Nc2ccc3ncncc3c2)c1Cl`, the figures for the IC50 in data set [1] and in data set [2] were 0.004 µM and 0.044 µM, respectively.

`CCCS(=O)(=O)Nc1cccc(Oc2ccc3ncn(C)c(=O)c3c2)c1C#N`: the IC50 in data set [1] was 0.0003 µM; in data set [2], 0.007 µM.

For the compound `CCCS(=O)(=O)Nc1ccc(F)c(Nc2ccc3ncccc3c2)c1F`, the IC50 was 0.314 µM in data set [1] and 6.25 µM in data set [2].

Turning to `CCCS(=O)(=O)Nc1ccc(F)c(Nc2ccc3ncn(Cc4ccccc4)c(=O)c3c2)c1Cl`, the figures for the IC50 in data set [1] and in data set [2] were 0.017 µM and 0.581 µM, respectively.

As to `CCCS(=O)(=O)Nc1ccc(F)c(Nc2ccc3ncn(C)c(=O)c3c2)c1F`, the results for the IC50 in data set [1] and in data set [2] were 0.019 µM and 0.055 µM, respectively.

For the compound `CCCS(=O)(=O)Nc1ccc(Cl)c(Nc2ccc3ncn(C)c(=O)c3c2)c1F`, the results for the IC50 in data set [1] and in data set [2] were 0.012 µM and 0.116 µM, respectively.

Turning to `CCCS(=O)(=O)Nc1ccc(F)c(N(C)c2ccc3ncn(C)c(=O)c3c2)c1Cl`, the IC50 was found to be 0.008 µM in data set [1] and 0.114 µM in data set [2].

Turning to `CCCS(=O)(=O)Nc1ccc(F)c(N(CC)c2ccc3ncn(C)c(=O)c3c2)c1Cl`, the figures for the IC50 in data set [1] and in data set [2] were 0.03 µM and 0.603 µM, respectively.

As for `CCCS(=O)(=O)Nc1ccc(F)c(Nc2ccc3ncncc3c2)c1F`, the IC50 came to 0.033 µM in data set [1] and 0.118 µM in data set [2].

With `CCCS(=O)(=O)Nc1ccc(F)c(Oc2ccc3ncn(C)c(=O)c3c2)c1C#N`, the IC50 came out at 0.0002 µM in data set [1] and 0.003 µM in data set [2].

In the case of `CCCS(=O)(=O)Nc1ccc(F)c(Nc2ccc3ncn(C)c(=O)c3c2)c1Cl`, the IC50 is 0.002 µM in data set [1] and 0.026 µM in data set [2]. For the same compound, the Papp A→B (in general, how fast a substance crosses the layer from the apical side) in data set [3] was greater than 8 ×10⁻⁶ cm/s. In data set [4], the clearance (in general, a measure of how efficiently the substance is removed, as volume per time) is 4.7 mL/min/kg. For the same compound, the Vd – broadly, a proportionality between amount in the body and measured concentration, not a real space – in data set [5] came out at 0.49 L/kg. Further, the AUC (as a rule, concentration integrated over time) in data set [6] turned out to be 282 µM·h. Further, the bioavailability in data set [7] came out at 112%.

In the case of `CCCS(=O)(=O)Nc1ccc(C)c(Nc2ccc3ncn(C)c(=O)c3c2)c1`, the IC50 in data set [1] is 0.851 µM.

`CCCS(=O)(=O)Nc1ccc(Cl)c(N(C)c2ccc3ncn(C)c(=O)c3c2)c1F`: the IC50 in data set [1] was 0.003 µM; in data set [2], 0.084 µM.

Regarding `CCCS(=O)(=O)Nc1ccc(Cl)c(Oc2ccc3ncn(C)c(=O)c3c2)c1C#N`, the IC50 is 0.0002 µM in data set [1] and 0.015 µM in data set [2].

With `CCCS(=O)(=O)Nc1ccc(F)c(Nc2ccc3ncn(-c4cnn(C)c4)c(=O)c3c2)c1Cl`, the values for the IC50 in data set [1] and in data set [2] were 0.002 µM and 0.018 µM, respectively.
